Data reported in PubChem BioAssay (NCI).
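Cells were grown in 96-well plates and exposed to each compound for 48 hours at five concentrations; endpoints were interpolated linearly between bracketing concentrations, or set to the highest concentration if not reached. GI50 is the concentration that inhibits growth by half. TGI is the concentration that stops growth completely.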

Experiments:
Experiment in all cases: NCI-60 cell line screen, 48 h
[1] = system: SK-MEL-5 melanoma
[2] = system: DU-145 prostate
[3] = system: EKVX NSCLC
[4] = system: MCF7 breast
[5] = system: HCT-116 colon
[6] = system: UACC-62 melanoma
[7] = system: SF-268 CNS
[8] = system: NCI/ADR-RES ovarian
[9] = system: SW-620 colon
[10] = system: M14 melanoma
[11] = system: NCI-H226 lung
[12] = system: SK-MEL-2 melanoma
[13] = system: HT29 colon
[14] = system: OVCAR-8 ovarian
[15] = system: U251 CNS
[16] = system: UO-31 renal
[17] = system: HOP-92 NSCLC
[18] = system: KM12 colon
[19] = system: RXF 393 renal
[20] = system: COLO 205 colon
[21] = system: NCI-H23 lung
[22] = system: NCI-H522 lung
[23] = system: HL-60(TB) leukemia
[24] = system: IGROV1 ovarian
[25] = system: A498 renal
[26] = system: A549 NSCLC
[27] = system: HCC-2998 colon
[28] = system: CAKI-1 renal
[29] = system: T-47D breast
[30] = system: MDA-MB-231 breast
[31] = system: BT-549 breast
[32] = system: LOX IMVI melanoma
[33] = system: ACHN renal
[34] = system: MOLT-4 leukemia
[35] = system: SK-OV-3 ovarian
[36] = system: RPMI-8226 leukemia
[37] = system: 786-0 renal
[38] = system: SNB-19 CNS
[39] = system: SNB-75 CNS
[40] = system: OVCAR-5 ovarian
[41] = system: SF-539 CNS
[42] = system: SN12C renal
[43] = system: SF-295 CNS
[44] = system: OVCAR-4 ovarian
[45] = system: MDA-MB-435
[46] = system: HS 578T breast
[47] = system: HCT-15 colon
[48] = system: K-562 leukemia
[49] = system: PC-3 prostate
[50] = system: OVCAR-3 ovarian
[51] = system: NCI-H460 lung
[52] = system: SK-MEL-28 melanoma
[53] = system: SR leukemia
[54] = system: UACC-257 melanoma
[55] = system: HOP-62 NSCLC
[56] = system: MALME-3M melanoma
[57] = system: CCRF-CEM leukemia
[58] = system: TK-10 renal

What does the source list for `O=C(Nc1ccccc1F)c1ccc(NC2=C(Cl)C(=O)N(Cc3ccccc3)C2=O)cc1`?
GI50 [1]: 4.41 µM; TGI [1]: 16.2 µM; GI50 [2]: 2.11 µM; TGI [2]: 4.34 µM; GI50 [3]: 16.6 µM; TGI [3]: 30.2 µM; GI50 [4]: 2.02 µM; TGI [4]: 5.06 µM; GI50 [5]: 8.4 µM; TGI [5]: 20.6 µM; GI50 [6]: 4.39 µM; TGI [6]: 15.9 µM; GI50 [7]: 2 µM; TGI [7]: 5.2 µM; GI50 [8]: 11.5 µM; TGI [8]: 23.6 µM; GI50 [9]: 3.29 µM; TGI [9]: 9.93 µM; GI50 [10]: 4.02 µM; TGI [10]: 17 µM; GI50 [11]: 11.2 µM; TGI [11]: 25.2 µM; GI50 [12]: 6.84 µM; TGI [12]: 18.4 µM; GI50 [13]: 4.18 µM; TGI [13]: 13.5 µM; GI50 [14]: 2.84 µM; TGI [14]: 7.86 µM; GI50 [15]: 13.3 µM; TGI [15]: 26 µM; GI50 [16]: 1.86 µM; TGI [16]: 3.6 µM; GI50 [17]: 1.91 µM; TGI [17]: 5.03 µM; GI50 [18]: 14.8 µM; TGI [18]: 34.3 µM; GI50 [19]: 5.09 µM; TGI [19]: 16.6 µM; GI50 [20]: 9.03 µM; TGI [20]: 21 µM; GI50 [21]: 13 µM; TGI [21]: 25.7 µM; GI50 [22]: 2.21 µM; TGI [22]: 5.34 µM; GI50 [23]: 1.72 µM; TGI [23]: 3.36 µM; GI50 [24]: 1.16 µM; TGI [24]: 2.94 µM; GI50 [25]: 16.6 µM; TGI [25]: 30.2 µM; GI50 [26]: 13.5 µM; TGI [26]: 26.3 µM; GI50 [27]: 15.7 µM; TGI [27]: 29.1 µM; GI50 [28]: 1.7 µM; TGI [28]: 3.25 µM; GI50 [29]: 3.06 µM; TGI [29]: 8.01 µM; GI50 [30]: 2.8 µM; TGI [30]: 13.8 µM; GI50 [31]: 3.13 µM; TGI [31]: 9.62 µM; GI50 [32]: 2.35 µM; TGI [32]: 5.9 µM; GI50 [33]: 15.1 µM; TGI [33]: 28.4 µM; GI50 [34]: 2.45 µM; TGI [34]: 6.79 µM; GI50 [35]: 17.6 µM; TGI [35]: 31.4 µM; GI50 [36]: 1.83 µM; TGI [36]: 3.92 µM; GI50 [37]: 14 µM; TGI [37]: 27 µM; GI50 [38]: 11.6 µM; TGI [38]: 23.8 µM; GI50 [39]: 16.5 µM; TGI [39]: 30 µM; GI50 [40]: 16.6 µM; TGI [40]: 30.2 µM; GI50 [41]: 6.18 µM; TGI [41]: 18 µM; GI50 [42]: 1.98 µM; TGI [42]: 7.93 µM; GI50 [43]: 10.7 µM; TGI [43]: 22.6 µM; GI50 [44]: 11.1 µM; TGI [44]: 23.1 µM; GI50 [45]: 3.07 µM; TGI [45]: 11.5 µM; GI50 [46]: 2.95 µM; TGI [46]: 9.4 µM; GI50 [47]: 3.38 µM; TGI [47]: 12.3 µM; GI50 [48]: 2.68 µM; TGI [48]: 12.1 µM; GI50 [49]: 3.39 µM; TGI [49]: 12.8 µM; GI50 [50]: 1.68 µM; TGI [50]: 3.05 µM; GI50 [51]: 6.6 µM; TGI [51]: 19.3 µM; GI50 [52]: 3.88 µM; TGI [52]: 13.5 µM; GI50 [53]: 0.66 µM; TGI [53]: 2.46 µM; GI50 [54]: 12.5 µM; TGI [54]: 29.8 µM

What does the source list for `CC(=O)OC1=C2C(CC3C4CC=C5CC(OC(C)=O)CCC5(C)C4CCC23C)C2C(=O)N(Cc3ccccc3)C(=O)C2C1` (centres undefined)?
GI50 [1]: 2.1 µM; TGI [1]: 4.79 µM; GI50 [2]: 32.8 µM; TGI [2]: > 100 µM; GI50 [4]: 2.71 µM; TGI [4]: 15 µM; GI50 [5]: 3.82 µM; TGI [5]: 17.2 µM; GI50 [6]: 4.42 µM; TGI [6]: 34.3 µM; GI50 [55]: 35.9 µM; TGI [55]: > 100 µM; GI50 [56]: 10.5 µM; TGI [56]: > 100 µM; GI50 [7]: 19.8 µM; TGI [7]: > 100 µM; GI50 [8]: 5.53 µM; TGI [8]: 28.2 µM; GI50 [9]: 12.2 µM; TGI [9]: > 100 µM; GI50 [10]: 7.77 µM; TGI [10]: 75.3 µM; GI50 [11]: 8.16 µM; TGI [11]: > 100 µM; GI50 [13]: 3.9 µM; TGI [13]: 24 µM; GI50 [14]: 6.9 µM; TGI [14]: > 100 µM; GI50 [16]: 2.56 µM; TGI [16]: 8.39 µM; GI50 [18]: 5.98 µM; TGI [18]: 46.8 µM; GI50 [19]: 4.34 µM; TGI [19]: 45.3 µM; GI50 [20]: 8.12 µM; TGI [20]: 25 µM; GI50 [21]: 16.6 µM; TGI [21]: 74 µM; GI50 [22]: 7.29 µM; TGI [22]: 58.7 µM; GI50 [23]: 3.65 µM; TGI [23]: 17.8 µM; GI50 [24]: 6.85 µM; TGI [24]: > 100 µM; GI50 [25]: 10.9 µM; TGI [25]: 43.6 µM; GI50 [26]: 4.33 µM; TGI [26]: 34 µM; GI50 [27]: 11.4 µM; TGI [27]: 67 µM; GI50 [28]: 4.65 µM; TGI [28]: > 100 µM; GI50 [29]: 3.12 µM; TGI [29]: 20.1 µM; GI50 [30]: 11.1 µM; TGI [30]: 72.7 µM; GI50 [57]: 3.39 µM; TGI [57]: > 100 µM; GI50 [31]: 3.53 µM; TGI [31]: 13.5 µM; GI50 [33]: 9.65 µM; TGI [33]: > 100 µM; GI50 [34]: 2.93 µM; TGI [34]: 8.37 µM; GI50 [35]: 17.7 µM; TGI [35]: > 100 µM; GI50 [36]: 2.78 µM; TGI [36]: 9.82 µM; GI50 [37]: 20.5 µM; TGI [37]: > 100 µM; GI50 [38]: 9.22 µM; TGI [38]: > 100 µM; GI50 [39]: 5.54 µM; TGI [39]: 86.5 µM; GI50 [40]: 50.3 µM; TGI [40]: > 100 µM; GI50 [41]: 3.48 µM; TGI [41]: 14.4 µM; GI50 [42]: 10.9 µM; TGI [42]: > 100 µM; GI50 [43]: 10.8 µM; TGI [43]: > 100 µM; GI50 [44]: 2.33 µM; TGI [44]: 9.27 µM; GI50 [45]: 14.5 µM; TGI [45]: > 100 µM; GI50 [46]: 15.7 µM; TGI [46]: > 100 µM; GI50 [47]: 3.09 µM; TGI [47]: > 100 µM; GI50 [48]: 4.33 µM; TGI [48]: > 100 µM; GI50 [49]: 4.03 µM; TGI [49]: > 100 µM; GI50 [50]: 3.31 µM; TGI [50]: 12 µM; GI50 [51]: 3.73 µM; TGI [51]: 31.1 µM; GI50 [58]: 47.4 µM; TGI [58]: > 100 µM; GI50 [52]: 28.9 µM; TGI [52]: > 100 µM; GI50 [53]: 3.62 µM; TGI [53]: 16.6 µM; GI50 [54]: 10.9 µM; TGI [54]: > 100 µM
